One compound from article PMC3705364, “Biochemical and Electrophysiological Characterization of Two Sea Anemone Type 1 Potassium Toxins from a Geographically Distant Population of Bunodosoma caissarum” (Marine Drugs, 2013) can be followed below.

Each structure is given as a SMILES string. Where a SMILES comes first, the peptide text is derived from it. Bridges are numbered along the chain shown (N, C = ends).

In data set [1] the target is T1, rKV1.1 (Rattus norvegicus, UniProt P10499).
T1 construct: expressed in transfected cells; host or cells: Xenopus laevis oocytes injected with cRNA
The experiment in a line: Two-electrode voltage-clamp, X. laevis oocytes expressing rKV1.1. Type of data set: cell-based. The note with it: mean ± standard error. As to the method: (§1) Stage V–VI of X. laevis oocytes were harvested by partial ovariectomy under anesthesia (3-aminobenzoic acid ethyl ester methanesulfonate salt, 0.5 g/L from Sigma-Aldrich Co., Saint Louis, MO, USA). The oocytes were defolliculated for 2 h by treatment with 2 mg/mL collagenase (Sigma-Aldrich Co., Saint Louis, MO, USA) in Ca^2+ free ND96 solution (in mM: 96 NaCl; 2 KCl; 1 MgCl2; 5 HEPES adjusted pH 7.4). For the expression of KV channels (KV1.1–KV1.6, KV2.1, KV3.1, KV4.2, KV4.3, hERG and the insect channel Shaker IR), the linearized plasmids were transcribed using the T7 or SP6 mMessage-mMachine transcription kit (Ambion, Austin, TX, USA). Oocytes were injected with 50 nL of cRNA at a concentration of 1 ng/nL using a microinjector (Drummond Scientific, Broomall, PA, USA). The oocytes were maintained in a ND96 solution (in mM: 96 NaCl, 2 KCl, 1.8 CaCl2, 2 MgCl2 and 5 HEPES; adjusted pH 7.4), supplemented with 50 µg/mL gentamicin sulfate.
(§2) Two-electrode voltage-clamp recordings were performed at room temperature (18–22 °C) using a Geneclamp 500 amplifier (Molecular Devices, Sunnyvale, CA, USA) controlled by a pClamp data acquisition system (Axon Instruments, Union City, CA, USA). Whole-cell currents from oocytes were recorded from 1 to 3 days after injection. Bath solution was the same ND96 solution described above. Voltage and current electrodes were filled with 3 M KCl. Resistances of both electrodes were kept between 0.8 and 1.0 ΩM. The elicited currents were filtered at 500 Hz using a four-pole lowpass Bessel filter. Leak subtraction was performed using a −P/4 protocol. KV1.1–KV1.6 and Shaker IR currents were evoked by 500 ms depolarizations to 0 mV, followed by a 500 ms pulse to −50 mV, from a holding potential of −90 mV. Current traces of hERG channels were elicited by applying a +40 mV prepulse for 2 s, followed by a step to −120 mV for 2 s. KV3.1, KV 4.2 and KV4.3 currents were elicited by 500 ms pulses to +20 mV from a holding potential of −90 mV. To assess the concentration-response relationships, data were fitted with the Hill equation: y = 100/[1 + (EC50/[toxin])h] (1) where y is the amplitude of the toxin-induced effect, EC50 is the toxin concentration at half maximal efficacy, [toxin] is the toxin concentration and h is the Hill coefficient. In order to investigate the current-voltage relationship, current traces were evoked by 10 mV depolarization steps from a holding potential of −90 mV. […]
(§3) Comparison of two sample means was made using a paired Student’s t test (p < 0.05). […] All data were analyzed using Clampfit 10.3 (Molecular Devices, Sunnyvale, CA, USA) and Origin 7.5 software (Origin Lab., Northampton, MA, USA).
On the technique in general: In two-electrode clamp one electrode senses voltage and the other passes current.

In data set [2] the target is T2, rKV1.2 (Rattus norvegicus, UniProt P63142).
T2 construct: expressed in transfected cells; host or cells: Xenopus laevis oocytes injected with cRNA
The experiment in a line: Two-electrode voltage-clamp, X. laevis oocytes expressing rKV1.2. It is filed as cell-based. As for the experimental part:
as §1, §2, §3

The target in data set [3] is T3, rKV1.6 (Rattus norvegicus, UniProt P17659).
T3 construct: expressed in transfected cells; host or cells: Xenopus laevis oocytes injected with cRNA
The experiment in a line: Two-electrode voltage-clamp, X. laevis oocytes expressing rKV1.6. It is filed as cell-based. The conditions noted are these: mean ± standard error. As for the experimental part:
as §1, §2, §3

For data set [4], the target named is T4, Shaker IR (Drosophila melanogaster, UniProt P08510, DEL6-46).
T4 construct: expressed in transfected cells; host or cells: Xenopus laevis oocytes injected with cRNA
Put plainly: Two-electrode voltage-clamp, X. laevis oocytes expressing Shaker IR. The note with it: mean ± standard error. Type of data set: cell-based, insect. As to the method:
as §1, §2, §3

Data set [5] deals with KV1.1–KV1.6, KV2.1, KV3.1, KV4.2, KV4.3, hERG and Shaker IR. Put plainly: Electrophysiological screening on 12 cloned KV channel isoforms in X. laevis oocytes. Type of data set: cell-based, rat, human, insect. As for the experimental part: The pharmacological profile of BcsTx-1 and -2 were determined on a wide range of twelve KV channels (rKV1.1, rKV1.2, hKV1.3, rKV1.4, rKV1.5, rKV1.6, rKV2.1, rKV3.1, rKV4.2, rKV4.3, hERG and the insect channel Shaker IR; r: rat and h: human). Channels were expressed in X. laevis oocytes, and their currents were recorded by using two-electrode voltage-clamp technique. BcsTx1 (0.5 µM) inhibited rKv1.1, rKv1.2, rKv1.3, rKv1.6 and Shaker IR channels with 44% ± 2%, 100%, 100%, 88% ± 3% and 64% ± 4%, respectively (Figure 6). […] Type 1 toxins, such as BgK and ShK, have been extensively characterized. […] Some of the other type 1 toxins were indirectly assayed by competitive inhibition of the binding of ^125I-dendrotoxins, allowing the conclusion that they will show activity on KV1.1, KV1.2 and/or KV1.6, since dendrotoxins only block the current of these KV channels. […] Thus, it is worth mentioning that our work represents the first electrophysiological characterization of type 1 sea anemone toxin activity on cloned Shaker IR insect channel.
as §1
Two-electrode voltage-clamp recordings were performed at room temperature (18–22 °C) using a Geneclamp 500 amplifier (Molecular Devices, Sunnyvale, CA, USA) controlled by a pClamp data acquisition system (Axon Instruments, Union City, CA, USA). Whole-cell currents from oocytes were recorded from 1 to 3 days after injection. Bath solution was the same ND96 solution described above. Voltage and current electrodes were filled with 3 M KCl. Resistances of both electrodes were kept between 0.8 and 1.0 ΩM. The elicited currents were filtered at 500 Hz using a four-pole lowpass Bessel filter. Leak subtraction was performed using a −P/4 protocol. KV1.1–KV1.6 and Shaker IR currents were evoked by 500 ms depolarizations to 0 mV, followed by a 500 ms pulse to −50 mV, from a holding potential of −90 mV. Current traces of hERG channels were elicited by applying a +40 mV prepulse for 2 s, followed by a step to −120 mV for 2 s. KV3.1, KV 4.2 and KV4.3 currents were elicited by 500 ms pulses to +20 mV from a holding potential of −90 mV. To assess the concentration-response relationships, data were fitted with the Hill equation: y = 100/[1 + (EC50/[toxin])h] (1) where y is the amplitude of the toxin-induced effect, EC50 is the toxin concentration at half maximal efficacy, [toxin] is the toxin concentration and h is the Hill coefficient. In order to investigate the current-voltage relationship, current traces were evoked by 10 mV depolarization steps from a holding potential of −90 mV. The activation curves were fitted with a Boltzmann relationship of the form: 1/(1 + e^[−(V − V^1/2)/^S^]) (2) where V1/2 is the voltage for half-maximal activation and s is the slope factor. The activation kinetics were obtained by mono-exponential fits to the raw current traces.

Data set [6] addresses hKV1.3 (Homo sapiens, UniProt P22001). Put plainly: Two-electrode voltage-clamp, X. laevis oocytes expressing hKV1.3. It is filed as cell-based. On the set-up: expressed in transfected cells; host or cells: Xenopus laevis oocytes injected with cRNA. As to the method:
as §1, §2, §3

[7] abbreviates: TEVC, 18–22 °C, ND96 pH 7.4, 500 ms depolarizations to 0 mV from −90 mV, Hill fit, n ≥ 3.
The mark [8] stands for this setting: TEVC, 18–22 °C, ND96 pH 7.4, 500 ms depolarizations to 0 mV from −90 mV, Hill fit, mean ± standard error, n ≥ 3.

T3 sequence (P17659 whole entry): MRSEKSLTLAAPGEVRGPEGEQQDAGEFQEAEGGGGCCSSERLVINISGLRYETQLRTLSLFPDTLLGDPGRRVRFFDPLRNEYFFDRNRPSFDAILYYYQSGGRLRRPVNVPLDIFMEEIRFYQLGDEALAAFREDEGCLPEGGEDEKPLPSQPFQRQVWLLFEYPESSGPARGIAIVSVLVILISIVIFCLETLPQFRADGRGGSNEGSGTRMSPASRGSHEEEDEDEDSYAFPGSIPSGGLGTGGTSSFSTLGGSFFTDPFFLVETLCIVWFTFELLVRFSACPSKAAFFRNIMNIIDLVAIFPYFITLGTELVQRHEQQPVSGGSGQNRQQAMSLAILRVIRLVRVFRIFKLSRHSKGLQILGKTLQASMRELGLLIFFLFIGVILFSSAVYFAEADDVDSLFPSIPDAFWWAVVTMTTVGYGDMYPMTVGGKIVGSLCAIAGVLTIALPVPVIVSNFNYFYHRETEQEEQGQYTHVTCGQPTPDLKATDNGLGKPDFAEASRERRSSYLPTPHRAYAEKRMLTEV
T4 sequence (P08510 with tags, fused parts or gaps DEL6-46): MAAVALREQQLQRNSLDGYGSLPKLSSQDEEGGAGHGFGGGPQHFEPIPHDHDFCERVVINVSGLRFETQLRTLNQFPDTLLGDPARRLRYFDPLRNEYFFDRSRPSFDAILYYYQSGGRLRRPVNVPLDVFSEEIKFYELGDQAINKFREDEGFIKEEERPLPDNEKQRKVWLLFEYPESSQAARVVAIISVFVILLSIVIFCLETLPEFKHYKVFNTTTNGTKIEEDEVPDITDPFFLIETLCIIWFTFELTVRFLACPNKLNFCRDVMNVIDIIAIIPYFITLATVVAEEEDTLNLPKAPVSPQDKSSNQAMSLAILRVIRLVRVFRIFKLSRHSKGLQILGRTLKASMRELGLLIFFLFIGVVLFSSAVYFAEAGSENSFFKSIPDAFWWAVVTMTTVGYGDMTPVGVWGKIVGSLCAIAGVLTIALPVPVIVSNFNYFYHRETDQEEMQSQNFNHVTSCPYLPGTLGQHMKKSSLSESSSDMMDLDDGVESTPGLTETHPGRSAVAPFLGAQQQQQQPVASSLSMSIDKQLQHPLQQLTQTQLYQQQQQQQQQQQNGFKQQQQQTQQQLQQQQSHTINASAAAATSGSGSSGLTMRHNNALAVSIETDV
hKV1.3, sequence (P22001 whole entry): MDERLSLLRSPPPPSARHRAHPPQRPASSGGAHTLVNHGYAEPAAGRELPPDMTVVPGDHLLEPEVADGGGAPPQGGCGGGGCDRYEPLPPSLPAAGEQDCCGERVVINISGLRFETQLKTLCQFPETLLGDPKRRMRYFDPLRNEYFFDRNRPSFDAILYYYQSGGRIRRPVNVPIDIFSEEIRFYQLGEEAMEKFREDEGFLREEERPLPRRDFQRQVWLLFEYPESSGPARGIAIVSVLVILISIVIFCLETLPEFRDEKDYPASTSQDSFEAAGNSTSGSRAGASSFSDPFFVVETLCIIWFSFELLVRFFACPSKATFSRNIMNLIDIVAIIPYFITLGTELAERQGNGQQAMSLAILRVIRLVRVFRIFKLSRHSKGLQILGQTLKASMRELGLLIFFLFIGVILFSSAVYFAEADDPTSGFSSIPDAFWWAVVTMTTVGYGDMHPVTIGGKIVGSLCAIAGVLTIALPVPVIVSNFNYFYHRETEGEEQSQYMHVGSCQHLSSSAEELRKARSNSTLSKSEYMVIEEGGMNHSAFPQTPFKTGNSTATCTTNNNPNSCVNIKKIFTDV
T1 sequence (P10499 whole entry): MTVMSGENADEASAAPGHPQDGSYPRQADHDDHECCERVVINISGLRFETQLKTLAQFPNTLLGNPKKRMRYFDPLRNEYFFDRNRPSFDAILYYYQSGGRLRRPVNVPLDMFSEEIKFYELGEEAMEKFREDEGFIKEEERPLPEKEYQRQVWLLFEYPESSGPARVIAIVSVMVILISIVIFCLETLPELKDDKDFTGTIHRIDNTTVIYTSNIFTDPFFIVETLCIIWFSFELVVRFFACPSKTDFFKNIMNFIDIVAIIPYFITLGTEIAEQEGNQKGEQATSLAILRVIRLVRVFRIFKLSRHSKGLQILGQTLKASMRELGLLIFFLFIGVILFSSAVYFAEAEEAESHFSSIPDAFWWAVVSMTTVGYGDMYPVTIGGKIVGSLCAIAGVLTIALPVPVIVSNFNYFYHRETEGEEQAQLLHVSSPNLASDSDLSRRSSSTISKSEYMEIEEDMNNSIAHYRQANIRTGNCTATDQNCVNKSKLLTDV
T2 sequence (P63142 whole entry): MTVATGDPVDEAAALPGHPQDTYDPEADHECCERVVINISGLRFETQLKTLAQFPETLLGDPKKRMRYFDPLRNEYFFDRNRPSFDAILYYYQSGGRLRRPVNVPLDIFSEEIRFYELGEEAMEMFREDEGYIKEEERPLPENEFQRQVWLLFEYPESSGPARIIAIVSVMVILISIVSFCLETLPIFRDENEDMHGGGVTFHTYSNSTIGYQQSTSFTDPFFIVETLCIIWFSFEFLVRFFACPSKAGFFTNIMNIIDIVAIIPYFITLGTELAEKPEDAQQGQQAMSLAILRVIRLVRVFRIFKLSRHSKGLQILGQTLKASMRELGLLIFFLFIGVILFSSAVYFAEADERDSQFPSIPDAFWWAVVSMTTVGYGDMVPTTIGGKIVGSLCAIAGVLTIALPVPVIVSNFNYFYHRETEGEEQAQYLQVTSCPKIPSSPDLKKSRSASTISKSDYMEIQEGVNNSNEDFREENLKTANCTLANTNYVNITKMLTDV

As for `CC(C)C[C@@H]1NC(=O)[C@H](CCCCN)NC(=O)[C@H](C)NC(=O)[C@H](Cc2c[nH]cn2)NC(=O)[C@H](CCC(N)=O)NC(=O)[C@@H]2CSSC[C@@H]3NC(=O)[C@H](CC(N)=O)NC(=O)[C@H](C)NC(=O)[C@H](CCCNC(=N)N)NC(=O)[C@H](Cc4ccc(O)cc4)NC(=O)[C@H](CCCCN)NC(=O)[C@H](CCC(N)=O)NC(=O)[C@H](CO)NC(=O)[C@H](CC(N)=O)NC(=O)[C@H](CCCCN)NC(=O)[C@H](CSSC[C@H](NC(=O)[C@H]([C@@H](C)O)NC(=O)[C@H](CCCCN)NC(=O)[C@H](C)NC3=O)C(=O)NCC(=O)N3CCC[C@H]3C(=O)N[C@H](C(=O)O)CSSC[C@H](NC(=O)[C@H](C)N)C(=O)N[C@@H](CCCCN)C(=O)N[C@@H](CC(=O)O)C(=O)NCC(=O)N[C@@H](Cc3ccccc3)C(=O)N3CCC[C@H]3C(=O)N[C@@H]([C@@H](C)O)C(=O)N[C@@H](C)C(=O)N[C@@H]([C@@H](C)O)C(=O)N2)NC(=O)[C@H](CC(N)=O)NC(=O)CNC(=O)[C@H](C(C)C)NC1=O` [BcsTx2] (H-ACKDGFPTATCQHAKLVGNCKNSQKYRANCAKTCGPC-OH; disulfide 2-37, 11-30, 20-34; C-terminus assumed), the inhibition (as a rule, the drop in the measured response relative to a control, in per cent) at 3 µM in data set [1] (3 µM, n ≥ 3, read-out: inhibition of rKV1.1 current) turned out to be 96%; in data set [2] (3 µM, n ≥ 3, read-out: inhibition of rKV1.2 current), 100%; in data set [3] (3 µM, n ≥ 3, read-out: inhibition of rKV1.6 current), 98%; in data set [4] (3 µM, n ≥ 3, read-out: inhibition of Shaker IR current), 94%; in data set [6] (3 µM, n ≥ 3, read-out: inhibition of hKV1.3 current) it was 100%. In addition, the IC50 (usually the concentration needed to halve the response being measured) in data set [1] (setting [7]) is 14.4 ± 2.61 nM; in data set [2] (setting [8]), 80.4 ± 1.44 nM; in data set [3] (setting [7]), 7.76 ± 1.9 nM; in data set [4] (setting [7]), 49.1 ± 3.44 nM; in data set [6] (setting [8]), 13.1 ± 3.29 nM. Besides, in data set [5] (3 µM, 12 KV isoforms), the “selectivity among KV channels (in words)” value was “selectively blocks Shaker channels subfamily”. The “potency class on KV channels (in words)” value in data set [5] (summary of IC50 values, compared with BgK and type 2 toxins) is given as “within the nanomolar range”. The “affinity/potency order among KV channels (in words)” value in data set [5] (summary of the electrophysiological characterization) was “potently blocked rKv1.6 over hKv1.3, rKv1.1, Shaker IR and rKv1.2”.
